Test results as given in the NIST ThermoML archive (doi:10.1021/je300827f).

Test: xn = mol fraction of the nth substance listed
Settings: 101 kPa, Liquid, x2 = 0; for viscosity: Capillary tube (Ostwald / Ubbelohde) method; for mass density: Vibrating tube method

CCCC(C)O (stereo not drawn) [pentan-2-ol] + OCCOCCO
Settings | mass density [kg/m3] | viscosity [mPa·s]
298.15 K | 805.4 | 3.2
303.15 K | 801.2 | 2.8
308.15 K | 796.6 | 2.33
313.15 K | 792.5 | 1.99
